These results are taken from patent US9643963B2, “Antiparasitic compounds” (Avista Pharma Solutions, Inc., priority 2013, dated 2017).

As a reminder, the EC50 is the concentration that produces a half-maximal response.

The assay deals with Dirofilaria immitis. The assay can be described thus: Dirofilaria immitis microfilariae motility assay or L4 stage assay (the source does not say which gave the EC50 values). The format is cell-based. Conditions: 72 h, read-out: EC50 values.
`O=C(Nc1nc(-c2ccccn2)ns1)c1ccc(C(=O)N2CCCCC2)cc1` [Compound 72, 4-(piperidine-1-carbonyl)-N-[3-(2-pyridyl)-1,2,4-thiadiazol-5-yl]benzamide]: the EC50 was under 5 µM.
With `O=C(Nc1nc(-c2ccccn2)ns1)c1ccc(I)cc1` [Compound 67, 4-iodo-N-[3-(2-pyridyl)-1,2,4-thiadiazol-5-yl]benzamide], the EC50 was under 5 µM.
In the case of `O=C(Nc1nc(-c2ccccn2)ns1)c1ccc(NC2CCNCC2)cc1` [Compound 79, 4-(4-piperidylamino)-N-[3-(2-pyridyl)-1,2,4-thiadiazol-5-yl]benzamide], the 50% effective concentration (EC50) is under 5 µM.
For the compound `CC(C)(C)OC(=O)N1CCN(C(=O)c2ccc(C(=O)Nc3nc(-c4ccccn4)ns3)cc2)CC1` [Compound 70, tert-butyl 4-[4-[[3-(2-pyridyl)-1,2,4-thiadiazol-5-yl]carbamoyl]benzoyl]piperazine-1-carboxylate], the concentration for a half-maximal effect (EC50) was under 5 µM.
Turning to `CC(C)(C)COc1ccnc(-c2nsc(NC(=O)c3ccc(C(F)(F)F)cc3)n2)c1` [Compound 143, N-[3-[4-(2,2-dimethylpropoxy)-2-pyridyl]-1,2,4-thiadiazol-5-yl]-4-(trifluoromethyl)benzamide], the EC50 is under 5 µM.
Next, `O=C(Nc1nc(-c2ccccn2)ns1)c1ccc(Cc2ccccc2)cc1` [Compound 89, 4-benzyl-N-[3-(2-pyridyl)-1,2,4-thiadiazol-5-yl]benzamide]: under 5 µM; `O=C(Nc1nc(-c2ccccn2)ns1)c1ccc(NCc2ccccc2)cc1` [Compound 118, 4-(benzylamino)-N-[3-(2-pyridyl)-1,2,4-thiadiazol-5-yl]benzamide]: under 5 µM.
The result for `O=C(Nc1nc(-c2cccc(-c3cccnc3)n2)ns1)c1ccc(C(F)(F)F)cc1` [Compound 116, N-[3-[6-(3-pyridyl)-2-pyridyl]-1,2,4-thiadiazol-5-yl]-4-(trifluoromethyl)benzamide] reads under 5 µM; that for `O=C(Nc1nc(-c2ccccn2)ns1)c1cccc(Nc2ccccc2)c1` [Compound 119, 3-anilino-N-[3-(2-pyridyl)-1,2,4-thiadiazol-5-yl]benzamide], under 5 µM.
